# Patent publication US20020028807A1, “Non-nucleoside reverse transcriptase inhibitors” (priority 2000, published 2002)
# Assays:
# HIV-1 RT V106A = molecular target: T1, HIV-1 RT V106A (Human immunodeficiency virus type 1 group M subtype B, UniProt P03366, V705A); experiment: Reverse transcriptase (RT) assay, V106A mutant; format: biochemical
# T1 construct: an HIV RT clone pKRT2 containing only the RT p66 gene regulated by the lac operon/trc promoter; made in house; host or cells: E. coli JM109, vector pKK233-2
# From the text: (§1) Among the enzymes for which Human Immunodeficiency Virus (HIV-1) encodes is a reverse transcriptase (1), so-named because it transcribes a DNA copy from an RNA template. This activity can be quantitatively measured in a cell-free enzyme assay and is based upon the observation that reverse transcriptase is able to use a synthetic template poly r(C) primed with a biotinylated oligo d(G) to transcribe a radio-labelled DNA strand utilising 3H-dGTP as a substrate. The assay described below utilises the wild-type enzyme (which is the predominant form of the enzyme observed in patients infected with HIV-1) and can also be used with mutant RT enzymes (for example, Y181C, prepared by site-directed mutagenesis in which the tyrosine residue at codon 181 has been replaced by a cysteine residue) in analogous assay conditions. This assay allows compounds to be evaluated for their effectiveness at inhibiting the mutant enzymes.
# (§2) Some HIV-1 IIIB clone BH10 RT mutants were provided by Dr. C.-K. Shih (Boehringer Ingelheim Pharmaceutials Inc., U.S.A.) in the vector pKK233-2 (Pharmacia). Briefly an HIV RT clone pKRT2 containing only the RT p66 gene regulated by the lac operon/trc promoter was obtained from Dr. W. Summers (Yale University) (2). A variety of specific amino acid substitutions were introduced into the wild-type RT gene by site-directed mutagenesis. RT clones were subcloned into the pKK233-2 bacterial expression vector. Clones provided included wild-type, Val106Ala, Tyr181Cys, Tyr188Cys, Tyr188Leu, Gly190Ala and Pro236Leu. Others were made in-house by site-directed mutagenesis of the pKK233-2 RT clones including Lys103Asn, Lys103Asn/Tyr181Cys, Lys103Asn/Leu100Ile, Lys103Asn/Pro225His, and Lys103Asn/Val108Ile.
# (§3) Purification of recombinant reverse transcriptase was performed using a combination of methods previously described (3). A single colony from a fresh plate of transformed JM109 cells was used to initiate growth of a pre-culture grown o/n at 37° C. Two liters of growth medium were inoculated with this pre-culture. At OD600˜1.5 (5-6 h at 37° C.), RT gene expression was induced with IPTG (1 mM final), and the fermentation was continued for a few more hours at 37° C. After centrifugation, supernatants were discarded while cell pellets were pooled and stored at −80° C. until purification. Cells were thawed at 4° C. overnight and suspended in lysis buffer (MES 50 mM pH 6, EDTA 1 mM, 10% v/v glyerol, 0.02% w/v OBG, 0.02% w/v sodium azide). Lysozyme was added and the mixture was incubated on ice for 40 minutes. After homogenization using a bounce in presence of lysozyme and sonication, the cells were centrifuged for 30 minutes. Supernatant (S1) was saved and stored at 4° C. The centrifuged pellet was resuspended in extraction buffer (MES 50 mM pH 6, KPO4 50 mM pH 6, KCl 100 mM, 10% v/v glycerol, 0.02% w/v OBG, 0.02% w/v sodium axide) and stirred for 30 minutes at 4° C. This second mixture was centrifuged again and the supernatant (S2) was saved. The above procedure was repeated 2 more times saving supernatants S3 and S4 and one last extraction was performed overnight (S5). Polymin P (0.005% final) was added to the combined supernatants to remove nucleic acids. This solution was stirred for 75 minutes at 4° C. and centrifuged for 1 h. The supernatant (SS1) was precipitated on ice with 20% w/v ammonium sulfate and stirred for 1 h at 4° C. The mixture was then centrifuged and the resulting supernatant (SS2) was precipitated with additional 40% w/v ammonium sulfate (60% total), stirred for 1 h and centrifuged again. The final pellet (P1) was stored overnight at 4° C. before undergoing purification the following day. All steps of the purification were performed at 4° C. unless otherwise stated.
# (§4) Pellet (P1) was resuspended into MES 50 mM pH 6, KPO4 10 mM pH 6, KCl 100 mM, 10% v/v glycerol, 0.02% w/v OBG, 0.02% w/v sodium azide. The suspension was dialysis against the same buffer overnight using 12-14 kD MWCO dialysis tubing. […]
# HIV-1 RT Y181C = molecular target: T2, HIV-1 RT Y181C (Human immunodeficiency virus type 1 group M subtype B, UniProt P03366, Y780C); experiment: Reverse transcriptase (RT) assay, Y181C mutant; format: biochemical
# T2 construct: an HIV RT clone pKRT2 containing only the RT p66 gene regulated by the lac operon/trc promoter; made in house; host or cells: E. coli JM109, vector pKK233-2
# From the text: as §1, §2, §3, §4
# HIV-1 RT K103N/Y181C = molecular target: T3, HIV-1 RT K103N/Y181C (Human immunodeficiency virus type 1 group M subtype B, UniProt P03366, K702N/Y780C); experiment: Reverse transcriptase (RT) assay, K103N/Y181C mutant; format: biochemical
# T3 construct: an HIV RT clone pKRT2 containing only the RT p66 gene regulated by the lac operon/trc promoter; made in house; host or cells: E. coli JM109, vector pKK233-2
# From the text: as §1, §2, §3, §4
# HIV-1 RT Y188C = molecular target: T4, HIV-1 RT Y188C (Human immunodeficiency virus type 1 group M subtype B, UniProt P03366, Y787C); experiment: Reverse transcriptase (RT) assay, Y188C mutant; format: biochemical
# T4 construct: an HIV RT clone pKRT2 containing only the RT p66 gene regulated by the lac operon/trc promoter; made in house; host or cells: E. coli JM109, vector pKK233-2
# From the text: as §1, §2, §3, §4
# HIV-1 RT G190A = molecular target: T5, HIV-1 RT G190A (Human immunodeficiency virus type 1 group M subtype B, UniProt P03366, G789A); experiment: Reverse transcriptase (RT) assay, G190A mutant; format: biochemical
# T5 construct: an HIV RT clone pKRT2 containing only the RT p66 gene regulated by the lac operon/trc promoter; made in house; host or cells: E. coli JM109, vector pKK233-2
# From the text: as §1, §2, §3, §4
# HIV-1 RT wild-type (WT) = molecular target: T6, HIV-1 RT wild-type (WT) (Human immunodeficiency virus type 1 group M subtype B, UniProt P03366); experiment: Reverse transcriptase (RT) assay, wild-type enzyme; format: biochemical
# T6 construct: an HIV RT clone pKRT2 containing only the RT p66 gene regulated by the lac operon/trc promoter; made in house; host or cells: E. coli JM109, vector pKK233-2
# From the text: as §1, §2, §3, §4
# HIV-1 RT P23L = molecular target: T7, HIV-1 RT P23L (Human immunodeficiency virus type 1 group M subtype B, UniProt P03366, P835L); experiment: Reverse transcriptase (RT) assay, P23L mutant; format: biochemical
# T7 construct: an HIV RT clone pKRT2 containing only the RT p66 gene regulated by the lac operon/trc promoter; made in house; host or cells: E. coli JM109, vector pKK233-2
# From the text: as §1, §2
# Purification of recombinant reverse transcriptase was performed using a combination of methods previously described (3). A single colony from a fresh plate of transformed JM109 cells was used to initiate growth of a pre-culture grown o/n at 37° C. Two liters of growth medium were inoculated with this pre-culture. At OD600˜1.5 (5-6 h at 37° C.), RT gene expression was induced with IPTG (1 mM final), and the fermentation was continued for a few more hours at 37° C. After centrifugation, supernatants were discarded while cell pellets were pooled and stored at −80° C. until purification. Cells were thawed at 4° C. overnight and suspended in lysis buffer (MES 50 mM pH 6, EDTA 1 mM, 10% v/v glyerol, 0.02% w/v OBG, 0.02% w/v sodium azide). Lysozyme was added and the mixture was incubated on ice for 40 minutes. After homogenization using a bounce in presence of lysozyme and sonication, the cells were centrifuged for 30 minutes. Supernatant (S1) was saved and stored at 4° C. […]
# HIV-1 RT K103N/P225H = molecular target: T8, HIV-1 RT K103N/P225H (Human immunodeficiency virus type 1 group M subtype B, UniProt P03366, K702N/P824H); experiment: Reverse transcriptase (RT) assay, K103N/P225H mutant; format: biochemical
# T8 construct: an HIV RT clone pKRT2 containing only the RT p66 gene regulated by the lac operon/trc promoter; made in house; host or cells: E. coli JM109, vector pKK233-2
# From the text: as §1, §2, §3, §4
# HIV-1 RT K103N = molecular target: T9, HIV-1 RT K103N (Human immunodeficiency virus type 1 group M subtype B, UniProt P03366, K702N); experiment: Reverse transcriptase (RT) assay, K103N mutant; format: biochemical
# T9 construct: an HIV RT clone pKRT2 containing only the RT p66 gene regulated by the lac operon/trc promoter; made in house; host or cells: E. coli JM109, vector pKK233-2
# From the text: as §1, §2, §3, §4
# [1] = tested on: HIV coding for wild-type reverse transcriptase (WT RT); experiment: ELISA (p24) assay of HIV replication in C8166 cell culture, wild-type RT virus; format: cell-based, HIV-1; details: Human immunodeficiency virus 1, C8166, 72 h, read-out: EC50 WT RT
# Method: Compounds of the invention were tested for their ability to inhibit HIV replication in cell culture in a 96-well plate assay. Complete RPMI 1640, consisting of RPMI 1640+10% fetal bovine serum, 10 μg/ml gentamycin and 10 μM β-mercaptoethanol was used for dilution of the compound as well as cell growth medium. The T lymphocyte cell line C8166 was infected at a multiplicity of infection of 0.001 with viruses coding for wild-type and mutant reverse transcriptase. Cells were then incubated for three days in the presence of serial dilutions of the compounds of the invention. The supernatant was pooled from eight replica wells and the concentration of extracellular p24 was determined using a commercially available HIV-1 p24 antigen assay kit (Beckman-Coulter®). The level of inhibition (% inhibition) was calculated with the following equation: [formula]
# HIV-1 RT K103N/V108I = molecular target: T10, HIV-1 RT K103N/V108I (Human immunodeficiency virus type 1 group M subtype B, UniProt P03366, K702N/V707I); experiment: Reverse transcriptase (RT) assay, K103N/V108I mutant; format: biochemical
# T10 construct: an HIV RT clone pKRT2 containing only the RT p66 gene regulated by the lac operon/trc promoter; made in house; host or cells: E. coli JM109, vector pKK233-2
# From the text: as §1, §2, §3, §4
# HIV-1 RT K103N/L100I = molecular target: T11, HIV-1 RT K103N/L100I (Human immunodeficiency virus type 1 group M subtype B, UniProt P03366, K702N/L699I); experiment: Reverse transcriptase (RT) assay, K103N/L100I mutant; format: biochemical
# T11 construct: an HIV RT clone pKRT2 containing only the RT p66 gene regulated by the lac operon/trc promoter; made in house; host or cells: E. coli JM109, vector pKK233-2
# From the text: as §1, §2, §3, §4
# HIV-1 RT Y188L = molecular target: T12, HIV-1 RT Y188L (Human immunodeficiency virus type 1 group M subtype B, UniProt P03366, Y787L); experiment: Reverse transcriptase (RT) assay, Y188L mutant; format: biochemical
# T12 construct: an HIV RT clone pKRT2 containing only the RT p66 gene regulated by the lac operon/trc promoter; made in house; host or cells: E. coli JM109, vector pKK233-2
# From the text: as §1, §2, §3, §4
structure (smiles),measurement,setting,value
"CCN1c2ncc(CCOc3ccnc4ccccc34)cc2C(=O)N(C)c2ccc(Cl)nc21 [compound 2, 2-Chloro-5,11-dihydro-11-ethyl-5-methyl-8-{2-(4-quinolinyloxy)ethyl}-6H-dipyrido[3,2-b:2′,3′-e][1,4]diazepin-6-one]",IC50,HIV-1 RT V106A,148 nM
same,IC50,HIV-1 RT Y181C,25 nM
same,IC50,HIV-1 RT K103N/Y181C,24.5 nM
same,IC50,HIV-1 RT Y188C,7.1 nM
same,IC50,HIV-1 RT G190A,14.5 nM
same,IC50,HIV-1 RT wild-type (WT),5.5 nM
same,IC50,HIV-1 RT P23L,50.5 nM
same,IC50,HIV-1 RT K103N/P225H,27 nM
same,IC50,HIV-1 RT K103N,28.5 nM
same,EC50,[1],2.2 nM
same,IC50,HIV-1 RT K103N/V108I,31 nM
same,IC50,HIV-1 RT K103N/L100I,46 nM
same,IC50,HIV-1 RT Y188L,258 nM
